Read-outs that look alike come from different tables or passages of the source. Starred links: 1 amine or outer side, 2 acyl side, 3 side chain; linkers in the order of their positions; H or OH if unused. Non-standard residues stand in square brackets, D forms with d. Residues, ends and D or L forms follow the SMILES beside them. X56 = CCN1CCN(C(=O)OC[C@@H](C)[C@@H](C(=O)[*:2])N(C)[*:1])CC1; X33 = CC(C)N1CCOC(COC[C@@H](C)[C@@H](C(=O)[*:2])N(C)[*:1])C1; X29 = CC(=O)N1CCN(C[C@@H](C)[C@@H](C(=O)[*:2])N(C)[*:1])CC1; X72 = C[C@H](CCN1CCN(C2CCC2)CC1)[C@@H](C(=O)[*:2])N(C)[*:1]; X35 = C[C@H](CN1CCC2(CC1)OCCO2)[C@@H](C(=O)[*:2])N(C)[*:1]; X67 = C[C@H](CCN1CCOC[C@@H]1C)[C@@H](C(=O)[*:2])N(C)[*:1]; X71 = COC1CN(CC[C@@H](C)[C@@H](C(=O)[*:2])N(C)[*:1])C1; X30 = C[C@H](CN1CCCOCC1)[C@@H](C(=O)[*:2])N(C)[*:1]; X43 = COCCN(C)C[C@@H](C)[C@@H](C(=O)[*:2])N(C)[*:1]; X76 = CO[C@H](CN1CCOCC1)[C@@H](C(=O)[*:2])N(C)[*:1]; MeBmt = C/C=C/C[C@@H](C)[C@@H](O)[C@H](NC)C(=O)O; NMeL = CN[C@@H](CC(C)C)C(=O)O; NMeV = CN[C@H](C(=O)O)C(C)C; dNMeA = CN[C@H](C)C(=O)O; Abu = CC[C@H](N)C(=O)O
Key:
cyclophilin A (CypA) = cyclophilin A (CypA) (Homo sapiens (Human), UniProt P62937); test: Inhibitor binding to cyclophilin proteins by SPR, CypA; design: unit not given here; details: 1:1 binding model;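 note: Single-cycle kinetics on a Biacore T200, compound injected at several concentrations for 1 min each at 50 µL/min, then 10 min dissociation, in HEPES pH 7.4 buffer with 3% DMSO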
[1] = test system: peripheral blood mononuclear cells (PBMC); test: Anti-proliferative or immunosuppressive activity, BrdU incorporation in PHA-stimulated PBMC; format: cell-based; details: PHA 3 μg/ml, 60 hour compound treatment; read-out: EMV PBMC IC50
Method in brief: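 Fresh PBMCs from two donors, 30,000 per well in X-VIVO 15 medium, stimulated with 3 μg/ml PHA to drive T-cell proliferation. Proliferation measured as BrdU incorporation into DNA by BrdU ELISA.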

cyclophilin B (CypB) = cyclophilin B (CypB) (Homo sapiens (Human), UniProt P23284); test: Inhibitor binding to cyclophilin proteins by SPR, CypB; design: unit not given here; details: 1:1 binding model
Method in brief: (§1)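 Running buffer: 10 mM HEPES pH 7.4, 150 mM NaCl, 0.05% P20, 3% DMSO, with compound present. Capture of avi-tagged mono-biotinylated cyclophilin; single-cycle series, 1 min contact, 10 min dissociation. Rates and affinity fitted to a 1:1 interaction model.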

[2] = test system: genotype 1b subgenomic HCV replicon in Huh7.5 cells; format: cell-based, hepatitis C virus; details: read-out: RPLN-1b IC50
Method in brief: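 Huh7.5 cells carrying genotype 1b subgenomic HCV replicon with renilla luciferase-neomycin reporter, in phenol red-free DMEM without G418. Luciferase measured after 72 h compound exposure relative to DMSO-treated cells; cytotoxicity (CC50) by Cell Titer-Glo.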

CypF = CypF (Homo sapiens (Human), UniProt P30405); test: Inhibitor binding to cyclophilin proteins by SPR, CypF; details: 1:1 binding model
Method in brief: as §1

[3] = target: organic anion transporting polypeptide 1B1 (OATP1B1) (Homo sapiens (Human), UniProt Q9Y6L6); test: OATP assay in CHO-OATP1B1 cells;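 note: inhibition of probe substrate uptake into the cells, ten minutes exposure, accumulated substrate read by fluorescence once cells were lysed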
[4] = genotype 1b replicon, 72 h incubation

Sequence of organic anion transporting polypeptide 1B1 (OATP1B1) (Q9Y6L6 whole entry): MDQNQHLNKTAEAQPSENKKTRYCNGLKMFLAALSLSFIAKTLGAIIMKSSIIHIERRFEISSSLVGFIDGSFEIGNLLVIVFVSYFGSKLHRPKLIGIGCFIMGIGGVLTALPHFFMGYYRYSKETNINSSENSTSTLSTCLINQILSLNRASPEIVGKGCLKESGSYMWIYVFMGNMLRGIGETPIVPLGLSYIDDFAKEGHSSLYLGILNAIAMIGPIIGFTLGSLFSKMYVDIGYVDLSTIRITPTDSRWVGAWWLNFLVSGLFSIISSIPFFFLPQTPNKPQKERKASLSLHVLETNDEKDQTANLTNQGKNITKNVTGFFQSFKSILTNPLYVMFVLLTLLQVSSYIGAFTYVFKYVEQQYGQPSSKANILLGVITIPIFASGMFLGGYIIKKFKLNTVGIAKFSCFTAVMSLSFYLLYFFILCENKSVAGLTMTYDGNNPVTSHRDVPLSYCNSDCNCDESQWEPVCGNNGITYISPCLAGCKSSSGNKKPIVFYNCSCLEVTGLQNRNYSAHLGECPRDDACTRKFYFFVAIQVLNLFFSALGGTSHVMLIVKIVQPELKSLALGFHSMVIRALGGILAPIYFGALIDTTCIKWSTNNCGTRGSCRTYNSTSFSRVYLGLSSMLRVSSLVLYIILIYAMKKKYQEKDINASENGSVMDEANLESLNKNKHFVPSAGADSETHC
Sequence of CypF (P30405 30-207): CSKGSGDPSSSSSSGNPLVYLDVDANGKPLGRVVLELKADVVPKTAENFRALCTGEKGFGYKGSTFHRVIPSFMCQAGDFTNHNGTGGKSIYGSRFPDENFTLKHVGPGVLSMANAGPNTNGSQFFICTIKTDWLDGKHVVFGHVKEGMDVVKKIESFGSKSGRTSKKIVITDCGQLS
Sequence of cyclophilin A (CypA) (P62937 whole entry): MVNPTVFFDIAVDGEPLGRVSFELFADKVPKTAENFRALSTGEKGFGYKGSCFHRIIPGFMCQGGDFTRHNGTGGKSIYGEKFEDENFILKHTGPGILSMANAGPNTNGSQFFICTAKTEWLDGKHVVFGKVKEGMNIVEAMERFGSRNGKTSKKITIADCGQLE
Sequence of cyclophilin B (CypB) (P23284 34-216): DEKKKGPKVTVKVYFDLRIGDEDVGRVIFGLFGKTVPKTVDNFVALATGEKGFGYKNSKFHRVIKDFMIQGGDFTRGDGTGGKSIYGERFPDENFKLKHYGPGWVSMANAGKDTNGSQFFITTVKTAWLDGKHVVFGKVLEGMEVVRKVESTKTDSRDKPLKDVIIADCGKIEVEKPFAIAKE

Compound | CypA Kd (cyclophilin A (CypA)) | IC50 [1] [nM] | CypB Kd (cyclophilin B (CypB)) | IC50 [2, 4] [nM] | CypF Kd (CypF) [nM] | IC50 [3] [nM] | IC50 [2] [nM]
C/C=C/C[C@@H](C)[C@@H](O)[C@H]1C(=O)N[C@@H](CC)C(=O)N(C)[C@H](C)C(=O)N(C)[C@@H]([C@H](C)COCC2CN(C(C)C)CCO2)C(=O)N[C@@H](C(C)C)C(=O)N(C)[C@@H](CC(C)C)C(=O)N[C@@H](C)C(=O)N[C@H](C)C(=O)N(C)[C@@H](CC(C)C)C(=O)N(C)[C@@H](CC(C)C)C(=O)N(C)[C@@H](C(C)C)C(=O)N1C (stereo partly drawn) [Compound 2.20.2, 3-[D-Ala]-4-[(2S,3S)-4-(((S)-4-isopropylmorpholin-2-yl)methoxy)-3-methyl-2-(methylamino)butanoyl]-cyclosporin] (cyclo(A[dA][NMeL][NMeL][NMeV][MeBmt][Abu][dNMeA][X33]V[NMeL])) | 0.6 | 6400 | 0.5 | 44 | 0.3 | 4300 | –
C/C=C/C[C@@H](C)[C@@H](O)[C@H]1C(=O)N[C@@H](CC)C(=O)N(C)[C@H](C)C(=O)N(C)[C@@H]([C@H](C)CCN2CC(OC)C2)C(=O)N[C@@H](C(C)C)C(=O)N(C)[C@@H](CC(C)C)C(=O)N[C@@H](C)C(=O)N[C@H](C)C(=O)N(C)[C@@H](CC(C)C)C(=O)N(C)[C@@H](CC(C)C)C(=O)N(C)[C@@H](C(C)C)C(=O)N1C [Compound 2.18.5, 3-[D-Ala]-4-[(2S,3R)-5-(3-methoxyazetidin-1-yl)-3-methyl-2-(methylamino)pentanoyl]-cyclosporin] (cyclo(A[dA][NMeL][NMeL][NMeV][MeBmt][Abu][dNMeA][X71]V[NMeL])) | 0.9 | 8100 | 0.6 | 78 | 0.5 | 1400 | –
C/C=C/C[C@@H](C)[C@@H](O)[C@H]1C(=O)N[C@@H](CC)C(=O)N(C)[C@H](C)C(=O)N(C)[C@@H]([C@H](C)CCN2CCOC[C@@H]2C)C(=O)N[C@@H](C(C)C)C(=O)N(C)[C@@H](CC(C)C)C(=O)N[C@@H](C)C(=O)N[C@H](C)C(=O)N(C)[C@@H](CC(C)C)C(=O)N(C)[C@@H](CC(C)C)C(=O)N(C)[C@@H](C(C)C)C(=O)N1C [Compound 2.18.4] (cyclo(A[dA][NMeL][NMeL][NMeV][MeBmt][Abu][dNMeA][X67]V[NMeL])) | 1.2 | 10600 | 0.7 | 44 | 0.7 | 1700 | –
C/C=C/C[C@@H](C)[C@@H](O)[C@H]1C(=O)N[C@@H](CC)C(=O)N(C)[C@H](C)C(=O)N(C)[C@@H]([C@H](C)COC(=O)N2CCN(CC)CC2)C(=O)N[C@@H](C(C)C)C(=O)N(C)[C@@H](CC(C)C)C(=O)N[C@@H](C)C(=O)N[C@H](C)C(=O)N(C)[C@@H](CC(C)C)C(=O)N(C)[C@@H](CC(C)C)C(=O)N(C)[C@@H](C(C)C)C(=O)N1C [Compound 2.5.24, 3-[D-Ala]-4-[(2S,3S)-4-((4-ethylpiperazine-1-carbonyl)oxy)-3-methyl-2-(methylamino)butanoyl]-cyclosporin] (cyclo(A[dA][NMeL][NMeL][NMeV][MeBmt][Abu][dNMeA][X56]V[NMeL])) | 0.5 | 3600 | 0.3 | 23 | 0.3 | 1900 | –
C/C=C/C[C@@H](C)[C@@H](O)[C@H]1C(=O)N[C@@H](CC)C(=O)N(C)[C@H](C)C(=O)N(C)[C@@H]([C@H](C)CCN2CCN(C3CCC3)CC2)C(=O)N[C@@H](C(C)C)C(=O)N(C)[C@@H](CC(C)C)C(=O)N[C@@H](C)C(=O)N[C@H](C)C(=O)N(C)[C@@H](CC(C)C)C(=O)N(C)[C@@H](CC(C)C)C(=O)N(C)[C@@H](C(C)C)C(=O)N1C [Compound 2.18.10, 3-[D-Ala]-4-[(2S,3R)-5-(4-cyclobutylpiperazin-1-yl)-3-methyl-2-(methylamino)pentanoyl]-cyclosporin] (cyclo(A[dA][NMeL][NMeL][NMeV][MeBmt][Abu][dNMeA][X72]V[NMeL])) | 1.5 | 1600 | 1.1 | 96 | 0.7 | 2100 | –
C/C=C/C[C@@H](C)[C@@H](O)[C@H]1C(=O)N[C@@H](CC)C(=O)N(C)[C@H](C)C(=O)N(C)[C@@H]([C@@H](CN2CCOCC2)OC)C(=O)N[C@@H](C(C)C)C(=O)N(C)[C@@H](CC(C)C)C(=O)N[C@@H](C)C(=O)N[C@H](C)C(=O)N(C)[C@@H](CC(C)C)C(=O)N(C)[C@@H](CC(C)C)C(=O)N(C)[C@@H](C(C)C)C(=O)N1C [Compound 2.21.1, 3-[D-Ala]-4-[(2S,3R)-3-methoxy-2-(methylamino)-4-morpholinobutanoyl]-cyclosporin] (cyclo(A[dA][NMeL][NMeL][NMeV][MeBmt][Abu][dNMeA][X76]V[NMeL])) | 2.8 | 15700 | 1.2 | – | 1.2 | 900 | 23
C/C=C/C[C@@H](C)[C@@H](O)[C@H]1C(=O)N[C@@H](CC)C(=O)N(C)[C@H](C)C(=O)N(C)[C@@H]([C@H](C)CN2CCN(C(C)=O)CC2)C(=O)N[C@@H](C(C)C)C(=O)N(C)[C@@H](CC(C)C)C(=O)N[C@@H](C)C(=O)N[C@H](C)C(=O)N(C)[C@@H](CC(C)C)C(=O)N(C)[C@@H](CC(C)C)C(=O)N(C)[C@@H](C(C)C)C(=O)N1C [Compound 2.5.23, 3-[D-Ala]-4-[(2S,3R)-4-(4-acetylpiperazin-1-yl)-3-methyl-2-(methylamino)butanoyl]-cyclosporin] (cyclo(A[dA][NMeL][NMeL][NMeV][MeBmt][Abu][dNMeA][X29]V[NMeL])) | 1.6 | 22800 | 0.7 | 47 | 0.8 | 2300 | –
C/C=C/C[C@@H](C)[C@@H](O)[C@H]1C(=O)N[C@@H](CC)C(=O)N(C)[C@H](C)C(=O)N(C)[C@@H]([C@H](C)CN2CCCOCC2)C(=O)N[C@@H](C(C)C)C(=O)N(C)[C@@H](CC(C)C)C(=O)N[C@@H](C)C(=O)N[C@H](C)C(=O)N(C)[C@@H](CC(C)C)C(=O)N(C)[C@@H](CC(C)C)C(=O)N(C)[C@@H](C(C)C)C(=O)N1C [Compound 2.5.21, 3-[D-Ala]-4-[(2S,3R)-3-methyl-2-(methylamino)-4-(1,4-oxazepan-4-yl)butanoyl]-cyclosporin] (cyclo(A[dA][NMeL][NMeL][NMeV][MeBmt][Abu][dNMeA][X30]V[NMeL])) | 1.9 | 4500 | 0.9 | 37 | 0.8 | 1700 | –
C/C=C/C[C@@H](C)[C@@H](O)[C@H]1C(=O)N[C@@H](CC)C(=O)N(C)[C@H](C)C(=O)N(C)[C@@H]([C@H](C)CN2CCC3(CC2)OCCO3)C(=O)N[C@@H](C(C)C)C(=O)N(C)[C@@H](CC(C)C)C(=O)N[C@@H](C)C(=O)N[C@H](C)C(=O)N(C)[C@@H](CC(C)C)C(=O)N(C)[C@@H](CC(C)C)C(=O)N(C)[C@@H](C(C)C)C(=O)N1C [Compound 2.5.28, 3-[D-Ala]-4-[(2S,3R)-3-methyl-2-(methylamino)-4-(1,4-dioxa-8-azaspiro[4.5]decan-8-yl)butanoyl]-cyclosporin] (cyclo(A[dA][NMeL][NMeL][NMeV][MeBmt][Abu][dNMeA][X35]V[NMeL])) | 1.4 | 6100 | 0.8 | 17 | 0.8 | 2100 | –
C/C=C/C[C@@H](C)[C@@H](O)[C@H]1C(=O)N[C@@H](CC)C(=O)N(C)[C@H](C)C(=O)N(C)[C@@H]([C@H](C)CN(C)CCOC)C(=O)N[C@@H](C(C)C)C(=O)N(C)[C@@H](CC(C)C)C(=O)N[C@@H](C)C(=O)N[C@H](C)C(=O)N(C)[C@@H](CC(C)C)C(=O)N(C)[C@@H](CC(C)C)C(=O)N(C)[C@@H](C(C)C)C(=O)N1C [Compound 2.5.22, 3-[D-Ala]-4-[(2S,3R)-4-((2-methoxyethyl)(methyl)amino)-3-methyl-2-(methylamino)butanoyl]-cyclosporin] (cyclo(A[dA][NMeL][NMeL][NMeV][MeBmt][Abu][dNMeA][X43]V[NMeL])) | 1.7 | 8900 | 0.9 | 41 | 0.9 | 1900 | –
C/C=C/C[C@@H](C)[C@@H](O)[C@H]1C(=O)N[C@@H](CC)C(=O)N(C)[C@H](C)C(=O)N(C)[C@@H]([C@H](C)CCCN2CCN(CC)CC2)C(=O)N[C@@H](C(C)C)C(=O)N(C)[C@@H](CC(C)C)C(=O)N[C@@H](C)C(=O)N[C@H](C)C(=O)N(C)[C@@H](CC(C)C)C(=O)N(C)[C@@H](CC(C)C)C(=O)N(C)[C@@H](C(C)C)C(=O)N1C (stereo in doubt) [Compound 2.19.4, 3-[D-Ala]-4-[(2S,3R)-6-(4-ethylpiperazin-1-yl)-3-methyl-2-(methylamino)hexanoyl]-cyclosporin] | 0.6 | 8800 | 0.4 | 60 | 0.4 | 2600 | –

From patent US9566312B2, “Cyclic peptides and use as medicines” (priority 2012, dated 2017)
